Experiments:
adults with ADHD = test: pilot crossover study in adults with ADHD: CAARS, CGI-ADHD-S, HAM-A, HAM-D; type: in vivo, human
Text: In addition to the primary outcome, the Conner's Adult ADHD Rating Scale (CAARS), secondary rating scales, neuropsychological, and safety assessments were completed. Results: A total of 11 adults with well-characterized ADHD completed this crossover study. […] On the clinical efficacy endpoints, CAARS Total Symptom Score and CAARS Hyperactive/Impulsive score, a shallow inverted V-shaped dose-response curve was observed. However, the dose-response curve for attention and memory effects as measured by computerized cognitive testing seemed dose-linear. No clinically meaningful findings in safety assessments or side effect profile were observed.
Subjects between 18 and 60 years old who met the DSM-IV-TR criteria for ADHD as assessed by clinical interview and confirmed by the Washington University in St. Louis Kiddie Schedule for Affective Disorders and Schizophrenia (WASH-U-KSADS) diagnostic criteria for ADHD (Orvaschel 1985) (Geller et al 1998) were eligible for inclusion in the study. Furthermore, a score of ≧2 on at least six of nine items in at least one of the subscales of the Conner's Adult ADHD Rating Scale (CAARS) (Conners et al 1999) at screening and Day 1 and a score of ≧4 (i.e., at least moderate severity) on the Clinical Global Impressions-ADHD Severity (CGI-ADHD-S) test (Guy 1976) at screening were required. Exclusion criteria consisted of: smoker or user of nicotine product(s) in the three months prior to enrollment; clinically significant chronic medical conditions; current diagnosis or history of schizoaffective or bipolar disorder, obsessive-compulsive disorder, schizophrenia, or other psychotic disorder; current depression requiring treatment; serious homicidal or suicidal ideation; abnormal baseline laboratory values; drug or alcohol abuse/dependence within the last three months; current use of psychotropics or stimulants; and pregnant or lactating women. The following institutional review boards at Quorum IRB in Seattle, Wash., The Human Research Committee at the Lawrence House in Boston, Mass., the Institutional Board of Research Associates at the NYU School of Medicine in New York, N.Y., the New York Campus, Va. NY Harbor Healthcare Systems Subcommittee for human subjects, research and development subcommittee, and research safety subcommittee in New York, N.Y., the University of Vermont Committee on Human Research in Burlington, Vt., the Scientific Advisory Committee of Burlington, Vt., and the University of Chicago Hospitals IRB in Chicago, Ill. approved the study protocol, and all subjects provided written, informed consent.
Following an initial two-week medication washout and screening period, subjects entered an eight-week double-blind treatment period. […] A study design schematic is provided below in Table 1.
Raters for the CAARS were trained and certified prior to the start of the study. Investigator-administered CAARS, CGI-ADHD-S, Hamilton Anxiety Scale (HAM-A) (Hamilton 1959), and Hamilton Depression Scale (HAM-D) (Hamilton 1960) were administered to subjects at baseline and at the completion of each treatment period (Days 14, 28, 42, and 56). CMRS, HAM-A, and HAM-D ratings were based on the previous seven days. After being trained, subjects completed a computerized cognitive assessment battery (Simpson et al 1989), which was amended to include the Conner's Continuous Performance Test (Conners 1995) and the Stroop Color Word Test (Jensen and Rohwer 1966), at baseline and at the completion of each treatment period. Attentional tasks (simple and choice reaction time, digit vigilance), selective attention (Conner's CPT), working memory tasks (numeric and spatial working memory, rapid visual information processing), episodic secondary memory (immediate and delayed word recall, word and picture recognition), motor control tasks (tracking), and executive function (the Stroop effect) were among the items assessed. […]

[1] = pilot study: tolerability and safety; type: in vivo, human; details: for Adverse event Headache, subjects reporting / Adverse event Increased appetite, subjects reporting / Adverse event Nervousness, subjects reporting / Adverse event Pain, subjects reporting / Adverse event Somnolence, subjects reporting: N=11
Description: Safety was evaluated by spontaneous report of adverse events; in addition, laboratory data (hematology, chemistry, urinalysis), vital signs, and electrocardiograms ([…]) were completed at baseline and at the end of each treatment period.

[2] = system: α4β2, α3β4, or α3β2 NNR subtypes; test: ion channel flux in cells expressing NNR subtypes; type: cell-based
Text: One method for assessing ion channel flux is via activation of ion flux into a cell expressed with recombinant α4β2, α3β4, or α3β2 NNR subtypes. Alternatively, a native cell line that expresses NNRs also can be suitable. The method can be accomplished under any suitable binding conditions. Examples of suitable binding conditions for [^3H]-cytisine binding have been described in the art, for example in at least U.S. Pat. Nos. 6,403,575 and 6,133,253, the procedures of which are herein incorporated by reference in their entirety. Data obtained from such ion channel flux assays can be evaluated to determine percent maximal nicotinic response (%), which directly correlates to percent maximal agonist efficacy.
Cells of IMR-32 human neuroblastoma clonal cell line (ATCC, Rockville, Md., USA) were maintained in a log phase of growth according to established procedures. Experimental cells were seeded at a density of 500,000 cells/mL into a 24-well tissue culture dish. Plated cells were allowed to proliferate for at least 48 hours before loading with 2 μCi/mL of ^86Rb^+ (35 Ci/mmol) overnight at 37° C. The ^86Rb^+ efflux assays were performed according to previously published protocols (Lukas, R. J., J. Pharmacol. Exp. Ther., 265, 294-302, 1993) except serum-free Dulbecco's Modified Eagle's medium was used during the ^86Rb^+ loading, rinsing, and agonist-induced efflux steps. […]

[3] = Phase 1 multiple dose human study; type: in vivo; details: 5 to 40 mg twice daily
[4] = animal models; U-shaped dose-response; cited from earlier work
human α4 β2 NNRs = human α4 β2 NNRs (Homo sapiens, UniProt P17787+P43681); test: binding to human α4β2 NNRs in vitro
human α4 β2 NNRs, sequence (P43681 29-627 limits assumed): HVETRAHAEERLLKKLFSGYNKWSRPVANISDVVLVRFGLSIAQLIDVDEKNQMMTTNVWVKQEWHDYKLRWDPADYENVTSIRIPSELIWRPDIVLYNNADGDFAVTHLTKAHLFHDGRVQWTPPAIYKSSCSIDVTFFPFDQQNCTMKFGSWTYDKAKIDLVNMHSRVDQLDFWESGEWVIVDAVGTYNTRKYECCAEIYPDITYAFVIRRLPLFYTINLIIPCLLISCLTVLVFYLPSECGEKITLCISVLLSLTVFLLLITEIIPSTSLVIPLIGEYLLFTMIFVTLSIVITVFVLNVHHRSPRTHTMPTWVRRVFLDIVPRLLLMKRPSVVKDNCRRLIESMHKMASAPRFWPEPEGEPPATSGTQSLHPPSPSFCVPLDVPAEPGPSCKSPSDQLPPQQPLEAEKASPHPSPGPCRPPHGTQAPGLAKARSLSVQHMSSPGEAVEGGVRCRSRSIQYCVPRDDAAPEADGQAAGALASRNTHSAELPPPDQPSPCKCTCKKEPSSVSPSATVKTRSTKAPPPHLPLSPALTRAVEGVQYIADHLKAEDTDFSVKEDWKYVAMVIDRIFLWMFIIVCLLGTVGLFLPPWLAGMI
human α4 β2 NNRs, sequence (P17787 26-502): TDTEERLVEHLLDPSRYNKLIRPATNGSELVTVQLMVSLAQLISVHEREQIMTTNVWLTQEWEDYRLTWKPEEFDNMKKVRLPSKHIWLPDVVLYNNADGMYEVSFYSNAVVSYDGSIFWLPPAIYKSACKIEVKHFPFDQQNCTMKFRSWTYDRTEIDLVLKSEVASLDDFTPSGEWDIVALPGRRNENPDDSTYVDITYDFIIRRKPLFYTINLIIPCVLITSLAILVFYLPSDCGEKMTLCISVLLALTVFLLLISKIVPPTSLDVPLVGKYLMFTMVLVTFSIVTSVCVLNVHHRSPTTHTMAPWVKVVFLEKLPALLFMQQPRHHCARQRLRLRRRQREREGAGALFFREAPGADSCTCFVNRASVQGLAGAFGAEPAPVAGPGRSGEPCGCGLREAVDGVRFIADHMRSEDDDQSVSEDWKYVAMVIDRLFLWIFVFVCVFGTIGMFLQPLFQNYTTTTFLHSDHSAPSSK

In the case of `Cc1ncccc1OC[C@@H]1CCCN1` [ABT-089, 2-methyl-3-(2-(S)-pyrrolidinylmethoxy)pyridine], the “Hyperactive/impulsive score improvement vs. placebo” value (adults with ADHD; 2 mg and 4 mg doses) is reported as about 20%, the “Inattentive score improvement versus placebo” value (adults with ADHD; 2 mg and 20 mg doses) is reported as “approximately 11%” and the “CAARS Hyperactive/Impulsive subscale, least square mean (±SE)” value (adults with ADHD; 2 mg bid) is reported as 13.8 (0.9). For the same compound, the “CAARS Inattentive subscale, least square mean (±SE)” value (“CAARS Inattentive subscale … (±SE)” below) (adults with ADHD; 2 mg bid) was 18.3 (1.2), the CGI-ADHD-S mean score (adults with ADHD; 2 mg dose) was 3.92 (0.20) and the “effect size, CAARS total symptom score vs placebo” value (“effect size … vs placebo” below) (adults with ADHD; 2 mg twice daily) was 0.92. The “CAARS Hyperactive/Impulsive subscale, least square mean (±SE)” value (adults with ADHD; 4 mg bid) was 14.5 (0.9), the “CAARS Inattentive subscale … (±SE)” value (adults with ADHD; 4 mg bid) was 18.7 (1.2) and the CGI-ADHD-S mean score (adults with ADHD; 4 mg dose) was 4.09 (0.20). The “effect size … vs placebo” value (adults with ADHD; 4 mg twice daily) was 0.76, the “CAARS Hyperactive/Impulsive subscale, least square mean (±SE)” value (adults with ADHD; 20 mg bid) was 15.4 (0.9) and the “CAARS Inattentive subscale … (±SE)” value (adults with ADHD; 20 mg bid) was 18.1 (1.2). For the same compound, the CGI-ADHD-S mean score (adults with ADHD; 20 mg dose) was 4.12 (0.20), the “effect size … vs placebo” value (adults with ADHD; 20 mg twice daily) was 0.71 and the “effect on HAM-A or HAM-D scores” value (adults with ADHD; in vivo) was “no effect”. For the same compound, the “Adverse event Headache, subjects reporting” value (from here on “Adverse event Headache”) ([1]; 2 mg bid) was 3, the “Adverse event Increased appetite, subjects reporting” value ([1]; 2 mg bid) was 0 and the “Adverse event Nervousness, subjects reporting” value (shortened to “Adverse event Nervousness”) ([1]; 2 mg bid) was 1. For the same compound, the “Adverse event Pain, subjects reporting” value ([1]; 2 mg bid) was 0, the “Adverse event Somnolence, subjects reporting” value (shortened to “Adverse event Somnolence”) ([1]; 2 mg bid) was 0 and the serious adverse events ([1]; 2 mg to 20 mg twice daily) was “no serious adverse events”. For the same compound, the tolerability ([1]; 2 mg to 20 mg twice daily, 11 adult ADHD subjects) was “well tolerated”, the “Adverse event Headache” value ([1]; 4 mg bid) was 0 and the “Adverse event Increased appetite, subjects reporting” value ([1]; 4 mg bid) was 0. The “Adverse event Nervousness” value ([1]; 4 mg bid) was 0, the “Adverse event Pain, subjects reporting” value ([1]; 4 mg bid) was 0 and the “Adverse event Somnolence” value ([1]; 4 mg bid) was 0. For the same compound, the “nausea, subjects” value ([1]; 4 mg dose) was “one subject”, the “Adverse event Headache” value ([1]; 20 mg bid) was 2 and the “Adverse event Nervousness” value ([1]; 20 mg bid) was 1. For the same compound, the “Adverse event Pain, subjects reporting” value ([1]; 20 mg bid) was 2, the “Adverse event Somnolence” value ([1]; 20 mg bid) was 2 and the “laboratory findings, vital signs or ECG” value ([1]; during the study) was “no clinically meaningful findings or dose-related trends”. The “agonist activity at NNRs expressed in vitro” value [2] was “weak agonist activity”, the tolerability [3] was “well tolerated” and the “Simple Reaction Time, a measure of attention” value ([3]; compared to placebo) was “significantly improved”. For the same compound, the “plasma levels associated with efficacy” value [4] was 5 to 15 ng/mL and the “binding to human α4 β2 NNRs” value (human α4 β2 NNRs) was “very selectively binds”.
